# According to ChEMBL document CHEMBL4834434, “Discovery of Novel and Potent N-Methyl-d-aspartate Receptor Positive Allosteric Modulators with Antidepressant-like Activity in Rodent Models” (J Med Chem, 2021):
# Active and inactive are the calls of the source. The calls are words filed in the database; no cut-off is given here.
# Tests used:
# [1] = biological target: Ionotropic glutamate receptor NMDA 1/2D (Homo sapiens) (UniProt Q05586+O15399); assay: Negative allosteric modulation of GluN1/GluN2D (unknown origin) expressed in HEK293 cells assessed as inhibition of current induced by […] and glycine at 30 uM by whole-cell patch clamp method; assay type: cell-based; conditions: filed as negative allosteric modulator
# Neuron [2] = assay: Effect on AMPA receptor in ICR mouse hippocampal neuron assessed as increase in AMPA-induced current at 30 uM; assay type: tissue-based
# [3] = biological target: T1, Glutamate NMDA receptor (Mus musculus) (UniProt P35436+Q91ZU9+Q03391+P35438+Q01097+Q01098+A2AIR5); assay: Positive allosteric modulation of C57BL/6 mouse NMDA receptor assessed as potentiation of NMDA-induced current by measuring peak current amplitude at 30 uM measured after 15 to 30 mins by patch-clamp method (reference value: 54.6 +/- 4.6 pA); assay type: tissue-based; conditions: Brain, filed as positive allosteric modulator, time 15-30 min
# [4] = biological target: Ionotropic glutamate receptor NMDA 1/2C (Homo sapiens) (UniProt Q05586+Q14957); assay: Positive allosteric modulation of GluN1/GluN2C (unknown origin) expressed in HEK293 cells assessed as enhancement of current induced by […] and glycine at 30 uM by whole-cell patch clamp method; assay type: cell-based
# [5] = biological target: T1, Glutamate NMDA receptor (Mus musculus); assay: Positive allosteric modulation of ICR mouse primary cortical neuron NMDA receptor assessed as potentiation of NMDA-induced maximum current by whole-cell patch clamp method; assay type: tissue-based; conditions: Brain
# [6] = biological target: T2, Glutamate NMDA receptor; GRIN1/GRIN2A (Homo sapiens) (UniProt Q05586+Q12879); assay: Effect on GluN1/GluN2A (unknown origin) expressed in HEK293 cells assessed as enhancement of glycine-induced current at 30 uM by whole-cell patch clamp method; assay type: cell-based
# [7] = biological target: T1, Glutamate NMDA receptor (Mus musculus); assay: Positive allosteric modulation of ICR mouse primary cortical neuron NMDA receptor assessed as potentiation of NMDA-induced current at 10 uM in presence of 30 uM exogenous glycine by whole-cell patch clamp method; assay type: tissue-based; conditions: Brain
# Glutamate NMDA receptor [8] = assay: Positive allosteric modulation of ICR mouse primary cortical neuron NMDA receptor assessed as potentiation of NMDA-induced current in presence of 30 uM exogenous glycine by whole-cell patch clamp method (reference value: 23.9 +/- 1.3 uM); assay type: tissue-based, Brain
# Glutamate NMDA receptor [9] = assay: Positive allosteric modulation of ICR mouse primary cortical neuron NMDA receptor assessed as potentiation of glycine-induced current in presence of 100 uM NMDA by whole-cell patch clamp method; assay type: tissue-based, Brain
# Mus musculus [10] = assay: Antidepressant activity in icv dosed CSDS-induced C57BL/6N mouse model assessed as reversal of reduction in CSDS-induced social interaction administered for 10 days by social interaction test; assay type: functional, organism-based; conditions: time 10.0 day
# [11] = biological target: T1, Glutamate NMDA receptor (Mus musculus); assay: Positive allosteric modulation of C57BL/6 mouse NMDA receptor assessed as fold change in compound potentiated NMDA-induced current relative to NMDA current alone in presence of saturating glutamate by patch-clamp method; assay type: tissue-based; conditions: Brain, filed as positive allosteric modulator
# Glutamate NMDA receptor [12] = assay: Positive allosteric modulation of C57BL/6 mouse NMDA receptor assessed as potentiation of NMDA-induced current in presence of saturating glutamate by patch-clamp method; assay type: tissue-based, Brain
# Mus musculus [13] = assay: Antidepressant activity in icv dosed C57BL/6N mouse assessed as decrease in immobility time measured after 36 mins; assay type: functional, organism-based
# [14] = biological target: T1, Glutamate NMDA receptor (Mus musculus); assay: Positive allosteric modulation of C57BL/6 mouse NMDA receptor assessed as fold change in compound potentiated NMDA-induced current relative to NMDA current alone at 30 uM measured after 15 to 30 mins by patch-clamp method; assay type: tissue-based; conditions: Brain, filed as positive allosteric modulator, time 15-30 min
# [15] = biological target: Glutamate NMDA receptor; GRIN1/GRIN2B (Homo sapiens) (UniProt Q05586+Q13224); assay: Positive allosteric modulation of GluN1/GluN2B (unknown origin) expressed in HEK293 cells assessed as enhancement of current induced by […] and glycine at 30 uM by whole-cell patch clamp method; assay type: cell-based
# Neuron [16] = assay: Effect on GABA receptor in ICR mouse hippocampal neuron assessed as increase in GABA-induced current at 30 uM; assay type: tissue-based
# [17] = Brain to blood partition coefficient of the compound; assay type: physicochemical, tissue-based; conditions: read-out: logBB (converted)
# [18] = biological target: T2, Glutamate NMDA receptor; GRIN1/GRIN2A (Homo sapiens); assay: Effect on GluN1/GluN2A (unknown origin) expressed in HEK293 cells assessed as enhancement of NMDA-induced current at 30 uM by whole-cell patch clamp method; assay type: cell-based
# [19] = biological target: T1, Glutamate NMDA receptor (Mus musculus); assay: Positive allosteric modulation of ICR mouse primary cortical neuron NMDA receptor assessed as potentiation of NMDA-induced current at 10 uM in absence of exogenous glycine/D-serine by whole-cell patch clamp method; assay type: tissue-based
# [20] = biological target: T2, Glutamate NMDA receptor; GRIN1/GRIN2A (Homo sapiens); assay: Positive allosteric modulation of GluN1/GluN2A (unknown origin) expressed in HEK293 cells assessed as enhancement of current induced by […] and glycine at 30 uM by whole-cell patch clamp method; assay type: cell-based; conditions: filed as positive allosteric modulator
# Mus musculus [21] = assay: Antidepressant activity in ICR mouse assessed as decrease in immobility time at 30 mg/kg, ip measured after 26 mins by forced swim test; assay type: functional, organism-based
# [22] = Cytotoxicity against mouse L929 cells assessed as cell growth inhibition at 60 uM measured after 48 hrs by CCK8 assay relative to control; assay type: cell-based
# [23] = Cytotoxicity against African green monkey Vero cells assessed as cell growth inhibition at 120 uM measured after 48 hrs by CCK8 assay relative to control; assay type: cell-based; conditions: chlorocebus sabaeus
# Mus musculus [24] = assay: Antidepressant activity in ICR mouse aassessed as inhibition of apomorphine-induced climbing behaviour at 10 mg/kg, ip administered prior to APO challenge and measured after 30 mins; assay type: functional, organism-based
# [25] = Effect on locomotor activity in ICR mouse assessed as hyperlocomotion at 10 mg/kg, ip measured after 90 mins; assay type: ADME, organism-based; conditions: in vivo, 1.5 h
# Mus musculus [26] = assay: Antidepressant activity in ICR mouse assessed as decrease in immobility time at 3 to 10 mg/kg, ip measured after 26 mins by forced swim test; assay type: functional, organism-based; conditions: dose 3-10 mg/kg
# hERG (KCNH2) [27] = biological target: T3, hERG (KCNH2) (Homo sapiens, UniProt Q12809); assay: Inhibition of human ERG expressed in CHO cells at 30 uM with holding potential at -80 to -60 mV for 500s followed by raise in potential at +30 mV for 2 sec and subsequent repolarization to -60 mV for 2 sec by whole-cell patch clamp method relative to control; assay type: cell-based; conditions: CHO cells expressing human ERG
# T3 sequence (Q12809 whole entry): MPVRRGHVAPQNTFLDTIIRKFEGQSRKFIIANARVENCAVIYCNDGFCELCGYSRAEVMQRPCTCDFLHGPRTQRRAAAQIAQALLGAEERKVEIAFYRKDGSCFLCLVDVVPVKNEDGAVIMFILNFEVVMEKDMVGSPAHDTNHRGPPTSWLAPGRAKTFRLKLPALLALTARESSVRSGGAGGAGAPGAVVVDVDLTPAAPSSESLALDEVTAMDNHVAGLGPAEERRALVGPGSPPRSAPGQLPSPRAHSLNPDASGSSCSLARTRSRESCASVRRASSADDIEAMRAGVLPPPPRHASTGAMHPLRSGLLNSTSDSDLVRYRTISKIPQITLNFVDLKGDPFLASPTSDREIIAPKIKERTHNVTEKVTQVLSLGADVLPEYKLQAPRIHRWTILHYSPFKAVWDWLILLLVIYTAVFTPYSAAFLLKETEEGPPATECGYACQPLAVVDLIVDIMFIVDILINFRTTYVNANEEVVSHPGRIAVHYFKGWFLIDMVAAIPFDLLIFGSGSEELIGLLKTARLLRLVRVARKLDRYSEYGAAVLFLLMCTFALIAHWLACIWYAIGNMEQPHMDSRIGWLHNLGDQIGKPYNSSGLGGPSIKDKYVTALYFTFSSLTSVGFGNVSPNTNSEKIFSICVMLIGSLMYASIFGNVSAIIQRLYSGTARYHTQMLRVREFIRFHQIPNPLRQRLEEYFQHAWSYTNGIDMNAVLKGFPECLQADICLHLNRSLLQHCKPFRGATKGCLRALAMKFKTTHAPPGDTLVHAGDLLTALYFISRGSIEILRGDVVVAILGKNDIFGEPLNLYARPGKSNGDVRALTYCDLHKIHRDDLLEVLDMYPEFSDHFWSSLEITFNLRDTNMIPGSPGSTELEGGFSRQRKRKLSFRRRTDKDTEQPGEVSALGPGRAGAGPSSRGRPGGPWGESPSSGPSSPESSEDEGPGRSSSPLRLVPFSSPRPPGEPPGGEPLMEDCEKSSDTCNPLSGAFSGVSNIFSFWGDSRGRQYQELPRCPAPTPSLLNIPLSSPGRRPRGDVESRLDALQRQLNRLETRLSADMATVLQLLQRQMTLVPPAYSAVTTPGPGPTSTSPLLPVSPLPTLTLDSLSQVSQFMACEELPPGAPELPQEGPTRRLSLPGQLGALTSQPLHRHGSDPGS
# [28] = Cytotoxicity against human HEK293 cells assessed as cell growth inhibition at 120 uM measured after 48 hrs by CCK8 assay relative to control; assay type: cell-based
# [29] = Cytotoxicity against human HEK293 cells assessed as cell growth inhibition at 60 uM measured after 48 hrs by CCK8 assay relative to control; assay type: cell-based
# [30] = Cytotoxicity against mouse L929 cells assessed as cell growth inhibition at 120 uM measured after 48 hrs by CCK8 assay relative to control; assay type: cell-based
# hERG (KCNH2) [31] = biological target: T3, hERG (KCNH2); assay: Inhibition of human ERG expressed in CHO cells at 100 uM with holding potential at -80 to -60 mV for 500s followed by raise in potential at +30 mV for 2 sec and subsequent repolarization to -60 mV for 2 sec by whole-cell patch clamp method relative to control; assay type: cell-based; conditions: CHO cells expressing human ERG
# [32] = Cytotoxicity against African green monkey Vero cells assessed as cell growth inhibition at 60 uM measured after 48 hrs by CCK8 assay relative to control; assay type: cell-based; conditions: chlorocebus sabaeus
# [33] = Effect on locomotor activity in ICR mouse assessed as hypolocomotion at 10 mg/kg, ip measured after 90 mins; assay type: ADME, organism-based; conditions: in vivo, 1.5 h
smiles,measurement,setting,value
Cc1cc(C)n(Cc2ccc(C(=O)Nc3ccc(Br)cc3C)o2)n1,Activity,[1],Active
same,Activity,Neuron [2],inactive
same,Activity,[3],1180 pA
same,Activity,[4],inactive
same,Activity,[5],inactive
same,Activity,[6],inactive
same,Activity,[7],inactive
same,EC50,Glutamate NMDA receptor [8],13.6 µM
same,EC50,Glutamate NMDA receptor [9],11.8 µM
same,Activity,Mus musculus [10],Active
same,fold change (FC),[11],3.8
same,EC50,Glutamate NMDA receptor [12],8.8 µM
same,Activity,Mus musculus [13],Active
same,fold change (FC),[14],32
same,Activity,[15],inactive
same,Activity,Neuron [16],inactive
same,Kp,[17],0.661
same,Activity,[18],inactive
same,Activity,[19],inactive
same,Activity,[20],Active
CNCCC(Oc1ccc(C(F)(F)F)cc1)c1ccccc1 (stereo not drawn),Activity,Mus musculus [13],Active
Cc1cc(C)n(Cc2ccc(C(=O)Nc3ccc(F)cc3C)s2)n1,Activity,Mus musculus [21],Active
same,"inhibition at 48 h, 60 µM",[22],11.5%
same,"inhibition at 48 h, 120 µM",[23],8.7%
same,Activity,Mus musculus [24],inactive
same,Activity,[25],Non-Toxic
same,Activity,Mus musculus [26],inactive
same,"inhibition at 2 s, 30 µM",hERG (KCNH2) [27],33.4%
same,"inhibition at 48 h, 120 µM",[28],34.4%
same,"inhibition at 48 h, 60 µM",[29],16.3%
same,fold change (FC),[11],10.2
same,EC50,Glutamate NMDA receptor [12],7.8 µM
same,fold change (FC),[14],10.1
same,"inhibition at 48 h, 120 µM",[30],23.9%
same,Kp,[17],0.794
same,"inhibition at 2 s, 100 µM",hERG (KCNH2) [31],47.6%
same,"inhibition at 48 h, 60 µM",[32],-1.5%
same,Activity,[33],Non-Toxic
